Assay results as given in patent US20120101076A1, “CARBONATE DERIVATIVES FOR THE TREATMENT OF COUGH” (priority 2010, published 2012).

Tests used:
[1] = tested on: guinea pigs (citric acid-induced cough); assay: citric acid cough challenge in guinea pigs; assay type: in vivo, guinea pig; conditions: for percentage (%) reduction of number of coughs / percentage (%) of reduction of number of cough efforts: mean±SEM
Experimental: Evaluation of the activities of Compound Ia and tiotropium bromide in an animal cough challenge model.
Male Dunkin-Hartley guinea pigs (250-350 g, Charles-River, Italy) were acclimatized in cages, (24±0.5° C.) for 1 week after delivery, with free access to water and standard rodent diet. One group of guinea pigs was actively sensitized by an intra-peritoneal injection of ovalbumin (100 mg/kg) followed by a subcutaneous injection of ovalbumin (100 mg/kg). Controls received the vehicle alone (0.9% NaCl).
After the period of acclimatization to laboratory conditions, animals were individually placed in a transparent perspex box (20×10×10 cm, Vetrotecnica, Italy) ventilated with a constant airflow of 400 ml/minute. A tussive agent (citric acid, 0.25 M) was nebulized via a mini-ultrasonic nebulizer (Ugo Basile, Italy). […] The numbers of elicited cough efforts were counted by a blind observer.
All experiments were carried out at the same time of day, starting at 9.00 a.m. Guinea-pigs received Compound Ia (1 mM) or tiotropium bromide (0.3 mM) or their vehicle (distilled water) for 10 minutes by aerosol at least 3 hour before the citric acid challenge (0.25 M; for 10 minute; by aerosol), in order to elicit cough.
Values are presented as mean±SEM. Comparisons among groups were made by one way analysis of variance (ANOVA) and the Student's t-test or the Bonferroni's test when appropriate. A p value of <0.05 was considered significant.

postviral coughing = conditions: inhaled, relative to placebo; cited from earlier work
[2] = tested on: adult nonsmokers with acute viral upper respiratory tract infection; conditions: once daily 18 μg by inhalation for 7 days; cited from earlier work
[3] = tested on: ovalbumin-sensitized guinea-pigs; conditions: administered intratracheally; cited from earlier work

With O=C(OC(c1cccc(F)c1)c1cccc(F)c1)O[C@H]1C[N+]2(CC(=O)c3cccs3)CCC1CC2.[Cl-] [Compound Ia] the “number of cough efforts induced by citric acid (statistical significance)” value ([1]; 1 mM by aerosol, 3 hours before citric acid 0.25 M) was “significantly reduced”, the “percentage (%) reduction of number of coughs” value ([1]; control, non-sensitized animals, 1 mM by aerosol, 3 hours before citric acid 0.25 M) was 17.4±6.4% and the “percentage (%) reduction of number of coughs” value ([1]; ovalbumin-sensitized animals, 1 mM by aerosol, 3 hours before citric acid 0.25 M) was 37.2±5.9%.

For CC(C)[N+]1(C)[C@@H]2CC[C@H]1C[C@@H](OC(=O)C(CO)c1ccccc1)C2 (stereo partly drawn) [ipratropium bromide], the “suppression of subjectively described postviral coughing” value (postviral coughing) is listed as “effective”.

With C[N+]1(C)[C@@H]2C[C@@H](OC(=O)C(O)(c3cccs3)c3cccs3)C[C@H]1[C@@H]1O[C@@H]12 [tiotropium bromide] the “number of cough efforts induced by citric acid (statistical significance)” value ([1]; 0.3 mM by aerosol, 3 hours before, both animal groups) was “did not reach a statistical significance”, the “percentage (%) of reduction of number of cough efforts” value ([1]; control animals, 0.3 mM by aerosol, 3 hours before citric acid 0.25 M) was 20.2±9.9% and the “percentage (%) of reduction of number of cough efforts” value ([1]; ovalbumin-sensitized animals, 0.3 mM by aerosol, 3 hours before citric acid 0.25 M) was 28.1±11%. The “cough reflex sensitivity to inhaled capsaicin” value [2] was “capable of inhibiting cough reflex sensitivity” and the “cough elicited by inhalation of citric acid” value [3] was “able to reduce cough”.
